Columns and labels:
[1] = Inhibition of [Fe(2+)]/ascorbate-induced lipid peroxidation at 10e-5 M in rat brain homogenate
[2] = In vitro glutathione peroxidase activity at 2*10e-7M using tert-butyl hydroperoxide, activity given in percentage of ebselen''s activity; format: functional
[3] = In vitro glutathione peroxidase activity at 2*10e-7M using hydrogen peroxide, activity given in percentage of ebselen''s activity; format: functional
[4] = Inhibition of spontaneous lipid peroxidation at 10e-5 M in rat brain homogenate

| SMILES | GSH-Px activity [2] | inhibition [1] [%] | GSH-Px activity [3] | inhibition [4] [%] |
| --- | --- | --- | --- | --- |
| Cn1c(=O)[se]c2cc(C(=O)c3ccc(Cl)cc3)ccc21 | 0 | 2 | 0 | -3 |
| CC(=O)c1ccc2[nH]c(=O)[se]c2c1 | 12 | 6 | 0 | 1 |
| CCCC(=O)c1ccc2c(c1)[se]c(=O)n2C | 0 | -3 | 0 | 2 |
| Cc1c(C)c2c(c(C)c1O)CCC(C)(C(=O)O)O2 (stereo unspecified) | 0 |  |  |  |
| Cn1c(=O)[se]c2cc(C(=O)c3ccccc3)ccc21 | 0 | -3 | 0 | -1 |
| CNc1ccccc1[Se][Se]c1ccccc1NC | 267 | 37 | 325 | 52 |

The next lines start with results.

| GSH-Px activity [2] | SMILES | inhibition [1] [%] | GSH-Px activity [3] | inhibition [4] [%] |
| --- | --- | --- | --- | --- |
| 279 | Nc1ccc(C(=O)c2ccc(Cl)cc2)cc1[Se][Se]c1cc(C(=O)c2ccc(Cl)cc2)ccc1N | 100 | 116 | 100 |
| 178 | CN(C)C(=O)Nc1ccccc1[Se][Se]c1ccccc1NC(=O)N(C)C | 97 | 236 | 96 |
| 298 | CNc1ccc(C(=O)c2ccccc2)cc1[Se][Se]c1cc(C(=O)c2ccccc2)ccc1NC | 100 | 68 | 100 |
| 212 | CN(C)C(=O)Nc1ccc(C(=O)c2ccccc2)cc1[Se][Se]c1cc(C(=O)c2ccccc2)ccc1NC(=O)N(C)C | 99 | 212 | 98 |
| 242 | Nc1ccc(Cc2ccccc2)cc1[Se][Se]c1cc(Cc2ccccc2)ccc1N | 97 | 227 | 91 |
